# Where “and” joins values, the source holds several entries; their conditions need not be identical. Equal entries are not always repeated.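 A five-concentration, 48-hour dose response in 96-well plates underlies each endpoint, interpolated linearly between surrounding concentrations. At the GI50, growth is halved. TGI marks complete inhibition of growth.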
# Columns and labels:
# Assay in all cases: inhibition of tumour cell growth, NCI panel, 48 h
# HOP-62 NSCLC = test system: HOP-62 NSCLC
# K-562 leukemia = test system: K-562 leukemia
# KM12 colon = test system: KM12 colon
# LOX IMVI melanoma = test system: LOX IMVI melanoma
# NCI-H460 lung = test system: NCI-H460 lung
# OVCAR-3 ovarian = test system: OVCAR-3 ovarian
# OVCAR-4 ovarian = test system: OVCAR-4 ovarian
# OVCAR-8 ovarian = test system: OVCAR-8 ovarian
# SF-295 CNS = test system: SF-295 CNS
# UO-31 renal = test system: UO-31 renal
Structure (SMILES),GI50 (HOP-62 NSCLC),TGI (HOP-62 NSCLC),GI50 (K-562 leukemia),TGI (K-562 leukemia),GI50 (KM12 colon),TGI (KM12 colon),GI50 (LOX IMVI melanoma),TGI (LOX IMVI melanoma),GI50 (NCI-H460 lung),TGI (NCI-H460 lung),GI50 (OVCAR-3 ovarian),TGI (OVCAR-3 ovarian),GI50 (OVCAR-4 ovarian),TGI (OVCAR-4 ovarian),GI50 (OVCAR-8 ovarian),TGI (OVCAR-8 ovarian),GI50 (SF-295 CNS),TGI (SF-295 CNS),GI50 (UO-31 renal),TGI (UO-31 renal)
[C](#Cc1ccccc1)[Hg][C]#Cc1ccccc1,> 100 µM,> 100 µM,13.2 µM,> 100 µM,94.1 µM,> 100 µM,25.4 µM,63.7 µM,86.2 µM,> 100 µM,39.8 µM,> 100 µM,18.6 µM,45.8 µM,26.6 µM,60.9 µM,> 100 µM,> 100 µM,32.5 µM,74.6 µM
Cc1nc(-c2ccccc2)n2nc(NCCCN3CCOCC3)ncc12,> 25 µM,> 25 µM,> 25 µM,> 25 µM,> 25 µM,> 25 µM,15.1 µM,> 25 µM,21.2 µM,> 25 µM,> 25 µM,> 25 µM,15.1 µM,> 25 µM,> 25 µM,> 25 µM,> 25 µM,> 25 µM,4.48 µM,24.4 µM
COC(=O)c1cc2c3ccccc3n3c(=O)c4cc5ccc(N(S(=O)(=O)c6ccc(C)cc6)S(=O)(=O)c6ccc(C)cc6)cc5nc4c(n1)c23,16.1 µM,45 µM,39.4 µM,> 100 µM,> 100 µM,> 100 µM,48.5 µM,> 100 µM,> 100 µM,> 100 µM,> 100 µM,> 100 µM,> 100 µM,> 100 µM,> 100 µM,> 100 µM,20.5 µM,> 100 µM,> 100 µM,> 100 µM
COc1ccc(NC(=O)CC2SC(=Nc3ccccc3C)NC2=O)c([N+](=O)[O-])c1 (stereo not given),,> 100 µM,,> 100 µM,,> 100 µM,,> 100 µM,,> 100 µM,,> 100 µM,,> 100 µM,,> 100 µM,,> 100 µM,,> 100 µM
OCc1ccc(N2CCc3cccc(F)c3C2)cc1Cl,0.0275 µM,27.2 µM,< 0.0206 µM,16.5 µM,15.7 µM,48.6 µM,23.5 µM,> 63.2 µM,< 0.0194 µM,1.23 µM,< 0.0169 µM,0.0505 µM,0.0279 µM,0.201 µM,5.85 µM,41.9 µM,0.246 µM,18.1 µM,14.5 µM,46.6 µM
CCNc1cc(-c2cccc(OC(F)(F)F)c2)nc2ccc(N3CCCC3)cc12,1.62 µM,3.16 µM,1.43 µM,4.3 µM,1.97 µM,4.77 µM,1.69 µM,3.26 µM,1.75 µM,4.1 µM,1.56 µM,3.14 µM,2.35 µM,10.7 µM,2.51 µM,8.24 µM,1.82 µM,3.6 µM,1.36 µM,2.71 µM
COc1ccc(-c2ccncc2)cc1C(N)=O,> 25 µM,> 25 µM,> 25 µM,> 25 µM,> 25 µM,> 25 µM,> 25 µM,> 25 µM,> 25 µM,> 25 µM,> 25 µM,> 25 µM,> 25 µM,> 25 µM,> 25 µM,> 25 µM,> 25 µM,> 25 µM,> 25 µM,> 25 µM
O=C(/C=C/C12c3ccccc3C(c3ccccc31)C1C(=O)NC(=O)C12)c1ccc(Cl)cc1Cl (stereo not given),2.06 µM,4.71 µM,2.57 µM,10.9 µM,1.76 µM,3.43 µM,1.88 µM,3.57 µM,1.85 µM,3.82 µM,1.71 µM,3.16 µM,1.86 µM,3.82 µM,1.88 µM,3.98 µM,1.78 µM,3.63 µM,1.4 µM,2.71 µM
CCC(=O)c1c(NOC2OCC(OC(C)=O)C(OC(C)=O)C2OC(C)=O)nc(OC)n(C)c1=O (stereo not given),,> 100 µM,,> 100 µM,,> 100 µM,,> 100 µM,,> 100 µM,,> 100 µM,,> 100 µM,,> 100 µM,,> 100 µM,,> 100 µM
S=c1snc2n1CCN2,> 100 µM,> 100 µM,> 100 µM,> 100 µM,> 100 µM,> 100 µM,81.7 µM,> 100 µM,54.9 µM,> 100 µM,> 100 µM,> 100 µM,> 100 µM,> 100 µM,> 100 µM,> 100 µM,> 100 µM,> 100 µM,> 100 µM,> 100 µM
O=C(/C=C/c1ccccc1)C(Br)C(Br)c1ccccc1 (stereo not given),4.06 µM,14.9 µM,0.303 µM,1.25 µM,2.07 µM,4.38 µM,1.52 µM,2.91 µM,2.37 µM,5.97 µM,1.17 µM,2.45 µM,1.73 µM,3.67 µM,2.04 µM,6.38 µM,2.95 µM,10.5 µM,1.19 µM,2.48 µM
CC[C@H](Nc1ncnc2nc[nH]c12)c1nc2cccc(F)c2c(=O)n1-c1ccccc1,> 100 µM,> 100 µM,30.2 µM,> 100 µM,43.7 µM,> 100 µM,28 µM,> 100 µM,36.3 µM,> 100 µM,10.2 µM,> 100 µM,> 100 µM,> 100 µM,44.6 µM,> 100 µM,5.75 µM,> 100 µM,3.5 µM,> 68.7 µM
Cc1nc(N)nc2c1CCC(O)S2 (stereo not given),5.44 µM,18.5 µM,5.18 µM,> 100 µM,5.46 µM,19.6 µM,10.4 µM,24.5 µM,3.86 µM,15.3 µM,2.76 µM,7.7 µM,3.26 µM,14.2 µM,3.73 µM,24 µM,14.8 µM,44.3 µM,39.7 µM,> 100 µM
CC(C)CCC[C@@H](C)[C@H]1CC[C@H]2[C@@H]3CC[C@H]4C[C@@H](CCC=C(c5cc(Cl)c(O)c(C(=O)O)c5)c5cc(Cl)c(O)c(C(=O)O)c5)CC[C@]4(C)[C@H]3CC[C@]12C,,> 100 µM,,> 100 µM,,> 100 µM,,> 100 µM,,> 100 µM,,> 100 µM,,> 100 µM,,> 100 µM,,> 100 µM,,> 100 µM
Cc1ncc(C(=O)Nc2ccc(CN3CCN(C)CC3)c(C(F)(F)F)c2)cc1C#Cc1cnc2cccnn12,0.423 µM,4.14 µM,0.005 µM,50 µM,0.005 µM,2.64 µM,0.183 µM,0.672 µM,0.501 µM,1.53 µM,0.643 µM,2.52 µM,0.205 µM,1.98 µM,0.339 µM,5.98 µM,1.01 µM,4.71 µM,0.242 µM,1.91 µM
CCC(O)c1ccc(Br)cc1NC(=O)c1cccc(Cl)c1 (stereo not given),20 µM,44.6 µM,15.6 µM,> 100 µM,13 µM,29.6 µM,9.03 µM,25 µM,21.9 µM,78.5 µM,20.3 µM,71.1 µM,30 µM,> 100 µM,23.7 µM,77.9 µM,15 µM,35.1 µM,10.8 µM,> 100 µM
O=S(=O)(NC1=NCCN1C(=S)SN1CCn2c1nsc2=S)c1cccc2ccccc12,20.6 µM,54.3 µM,16.1 µM,44.6 µM,17.3 µM,41.4 µM,20.4 µM,55 µM,20.4 µM,> 100 µM,16.5 µM,40.3 µM,29.2 µM,> 100 µM,17.5 µM,43.8 µM,18.4 µM,71.1 µM,26.6 µM,> 100 µM
COc1ccc(OC)c(NC(=O)CCC/C(CC(=O)c2ccc(O)c(OC)c2)=N\Nc2nnc(C)n2N)c1,,> 100 µM,,> 100 µM,,> 100 µM,,> 100 µM,,> 100 µM,,> 100 µM,,> 100 µM,,> 100 µM,,> 100 µM,,> 100 µM
O=S(=O)(NCCNc1nccc(-c2c(-c3ccc(F)c(O)c3)nc3sccn23)n1)c1ccc(F)cc1,5.09 µM,74.4 µM,2.55 µM,> 100 µM,2.89 µM,14.6 µM,0.675 µM,18 µM,3.43 µM,17.2 µM,4.09 µM,59.5 µM,3.9 µM,14.7 µM,4.25 µM,48 µM,3.41 µM,39.7 µM,4.02 µM,15.1 µM
CC(=O)Oc1ccc(C23c4ccccc4C2(OC(C)=O)c2cc(OC(C)=O)ccc23)cc1 (stereo not given),8.78 µM,34.5 µM,4.04 µM,> 100 µM,3.34 µM,11.2 µM,3.48 µM,12.8 µM,12.3 µM,44.4 µM,8.32 µM,52.9 µM,30 µM,> 100 µM,4.28 µM,49.5 µM,4.37 µM,20.4 µM,1.85 µM,5.02 µM
NCCSSCCN,,> 100 µM,,> 100 µM,,> 100 µM,,> 100 µM,,> 100 µM,,> 100 µM,,> 100 µM,,> 100 µM,,> 100 µM,,> 100 µM
CC1=CC(=O)CC2(C)CC[C@@H]3C[C@]12OC3(C)C (stereo not given in full),,> 100 µM,,> 100 µM,,> 100 µM,,> 100 µM,,> 100 µM,,> 100 µM,,> 100 µM,,> 100 µM,,> 100 µM,,> 100 µM
C=CCNc1nc2c(s1)C(=O)c1ccccc1C2=O,,26.7 µM,,35.8 µM,,28.1 µM,,19.6 µM,,28.5 µM,,37.6 µM,,26.4 µM,,20.1 µM,,28.2 µM,,26.1 µM
CC1=Nc2c(ccc3c2C(=O)c2ccccc2C3=O)NC(c2cccc3c2CCC3)C1 (stereo not given),,> 100 µM,,> 100 µM,,> 100 µM,,> 100 µM,,> 100 µM,,> 100 µM,,> 100 µM,,> 100 µM,,> 100 µM,,> 100 µM
CCOC(=O)c1cc2cc3c4c(c2oc1=O)CCCN4CCC3,,> 100 µM,,> 100 µM,,61.9 µM,,62.7 µM,,> 100 µM,,93.9 µM,,> 100 µM,,72.9 µM,,> 100 µM,,> 100 µM
CC(C)Nc1cc(-c2c[nH]c(C(=O)N[C@H](CO)c3cccc(Cl)c3)c2)c(Cl)cn1,3.93 µM and 0.479 µM,26.4 µM and > 10 µM,3.35 µM,> 10 µM,0.751 µM and 0.444 µM,15.5 µM and > 10 µM,0.157 µM and 0.316 µM,12.8 µM and > 10 µM,1.35 µM and 1.05 µM,15.8 µM and > 10 µM,4.66 µM and > 9.46 µM,18.8 µM and > 10 µM,3.68 µM and > 6.63 µM,20.7 µM and > 10 µM,7.75 µM and 8.82 µM,24.3 µM and > 10 µM,4.22 µM and > 8.07 µM,18.1 µM and > 10 µM,0.986 µM and 0.838 µM,14.5 µM and > 10 µM
COc1ccc2c(=O)cc(-c3ccccc3)[nH]c2c1,9.74 µM,> 100 µM,0.439 µM,> 100 µM,0.405 µM,> 100 µM,4.17 µM,> 100 µM,0.397 µM,> 42 µM,0.408 µM,2.14 µM,3.28 µM,> 100 µM,2.64 µM,> 46.6 µM,0.33 µM,1.84 µM,0.716 µM,> 100 µM
CC(C)c1cnn2c(NCc3ccccc3)cc(NC[C@H]3CCNC[C@@H]3O)nc12,0.225 µM and 0.348 µM,1.33 µM and 3.13 µM,0.409 µM and 0.571 µM,11.3 µM and > 100 µM,0.353 µM and 0.407 µM,3.31 µM and 2.5 µM,0.0945 µM and 0.0967 µM,1.49 µM and 0.542 µM,0.0583 µM and 0.0817 µM,1.7 µM and 3.31 µM,0.489 µM and 0.707 µM,8.66 µM and 4.17 µM,0.304 µM and 0.597 µM,2.8 µM and 3.62 µM,0.555 µM and 0.745 µM,11.6 µM and 8.68 µM,1.15 µM and 0.508 µM,11.1 µM and 9.32 µM,2 µM and 2.65 µM,11.8 µM and 12 µM

# — PubChem BioAssay (NCI)
